Reference: the NIST ThermoML archive (doi:10.1021/je900596d)

Conditions: 357.01 K, Liquid, Vibrating tube method

FC(F)=C(F)C(F)(F)F [hexafluoropropene]
Conditions | mass density [kg/m3]
3815.9 kPa | 942.63
3841.4 kPa | 944.76
3866.1 kPa | 946.85
3891.2 kPa | 948.86
3916.1 kPa | 950.85
3941.3 kPa | 952.87
3966.7 kPa | 954.74
3992.1 kPa | 956.67
4032.7 kPa | 959.68
4052.9 kPa | 961.12
4073.2 kPa | 962.41
4094 kPa | 963.87
4114.8 kPa | 965.29
4135 kPa | 966.6
4155.1 kPa | 967.92
4175.4 kPa | 969.27
4195.5 kPa | 970.62
4215.6 kPa | 971.88
4258.3 kPa | 974.59
4279.4 kPa | 975.81
4299.6 kPa | 977.03
4320.4 kPa | 978.34
4340.8 kPa | 979.7
4361.8 kPa | 980.83
4383.2 kPa | 982.1
4404.3 kPa | 983.28
4445.8 kPa | 985.59
4467.1 kPa | 986.71
4488.7 kPa | 987.99
4929.3 kPa | 1009.65
4970.6 kPa | 1011.35
5012.8 kPa | 1013.28
5053.2 kPa | 1015.04
5094.4 kPa | 1016.71
5178.4 kPa | 1020.12
5218.9 kPa | 1021.7
5262 kPa | 1023.52
5302.8 kPa | 1025.13
5344.2 kPa | 1026.56
5426.4 kPa | 1029.68
5468.6 kPa | 1031.33
5509.4 kPa | 1032.71
5595.1 kPa | 1035.91
5636.8 kPa | 1037.33
5678.3 kPa | 1038.78
5720.2 kPa | 1040.29
5761.9 kPa | 1041.7
5802.7 kPa | 1043
5844 kPa | 1044.41
5885.2 kPa | 1045.79
5926.3 kPa | 1047.08
5966.4 kPa | 1048.43
6079.9 kPa | 1052.05
6121.3 kPa | 1053.27
6161.6 kPa | 1054.49
6202.1 kPa | 1055.73
6242.6 kPa | 1057.02
6283 kPa | 1058.17
6323.7 kPa | 1059.35
6365.4 kPa | 1060.53
6405.9 kPa | 1061.73
6446.1 kPa | 1062.93
6487.1 kPa | 1063.92
6527.7 kPa | 1065.18
6568.3 kPa | 1066.33
6649.5 kPa | 1068.55
6689.8 kPa | 1069.61
6730.6 kPa | 1070.82
6771.8 kPa | 1071.89
6812.8 kPa | 1072.89
6854 kPa | 1074.05
6894.2 kPa | 1075.07
6976.2 kPa | 1077.12
7016.9 kPa | 1078.17
7059.1 kPa | 1079.19
7099.3 kPa | 1080.34
7141 kPa | 1081.32
7182 kPa | 1082.35
7223.7 kPa | 1083.32
7265.2 kPa | 1084.37
7306.5 kPa | 1085.33
7391.5 kPa | 1087.34
7432.1 kPa | 1088.27
7472.8 kPa | 1089.26
7514.5 kPa | 1090.2
7555.9 kPa | 1091.18
7596.5 kPa | 1092.11
7637.6 kPa | 1093.07
7760.7 kPa | 1095.83
7802.6 kPa | 1096.76
7843.1 kPa | 1097.59
7885.2 kPa | 1098.49
7925.7 kPa | 1099.42
7967.5 kPa | 1100.24
8050.7 kPa | 1102.02
8094 kPa | 1102.97
8134 kPa | 1103.77
8175.6 kPa | 1104.71
8217.3 kPa | 1105.6
8258 kPa | 1106.39
8301 kPa | 1107.38
8342.7 kPa | 1108.09
8385.4 kPa | 1108.93
8428.9 kPa | 1109.88
8510.3 kPa | 1111.46
8552.8 kPa | 1112.27
8592.9 kPa | 1113.04
8634.2 kPa | 1113.83
8675.9 kPa | 1114.7
8717.3 kPa | 1115.43
8760 kPa | 1116.3
8843.1 kPa | 1117.91
8884.8 kPa | 1118.68
8926.5 kPa | 1119.39
8969.2 kPa | 1120.21
9010.2 kPa | 1120.94
9055 kPa | 1121.82
9096.9 kPa | 1122.57
9138.6 kPa | 1123.29
9223.4 kPa | 1124.87
9264.9 kPa | 1125.67
9307.3 kPa | 1126.46
9350.7 kPa | 1127.19
9393 kPa | 1127.83
9476.5 kPa | 1129.45
9518.3 kPa | 1130.09
9558.9 kPa | 1130.8
9598.9 kPa | 1131.49
9640.9 kPa | 1132.16
9683.8 kPa | 1132.95
9726.5 kPa | 1133.66
9769.9 kPa | 1134.38
9810.5 kPa | 1135.04
